Where a name gives a salt, the structure may show the parent alone.
Key:
Entamoeba histolytica = assay: Growth inhibition of Entamoeba histolytica in vitro (literature); assay type: cell-based; settings: anti-coronavirus IC50 versus amebae
[1] = MTS assay, growth inhibition and toxicity in non-infected BEC-hACE2 cells; assay type: cell-based, human; settings: human, sub-confluent non-infected BEC-hACE2 cells; sub-confluent BEC-hACE2, 24 h; read-out: MTS, CC50 (50 % effect)
Method: (§1) Detailed methods are provided in Supplementary Information.
(§2) Vero E6 and BEC-hACE2 cells were grown to 70-80% density in their maintenance media and exposed to various concentrations of ipecac alkaloids (0.0125 – 200 µM) under standard culture conditions for 48-72 h and 24 h, respectively. Controls with varying amounts of DMSO and no DMSO were included also. Vero E6 cells were incubated with drugs in 2% FBS-EMEM, while BEC-HACE2 cells were grown and treated in complete PCS-300-03 medium with supplements. Similar treatments were also conducted using fully confluent non-growing BEC-hACE2 cells. At the end of the exposure period, MTS reagent (Promega G3580) was added at 1/5th of the medium volume and color was allowed to develop by incubation of the plates for an hour in a cell culture incubator. To stop reactions, SDS was added to a final concentration of 2% and optical density of samples was measured at 450 or 490 nm, depending on the model of spectrophotometer (PharmaciaBiotech, NJ, USA; UV spectrophotometer, model Ultrospec2000) or plate reader (Molecular Devices, CA, USA; model Filter Max F5 Multi-mode microplate reader) available at the time of experiment.

[2] = MTS assay, growth inhibition and toxicity in non-infected Vero E6 cells; assay type: cell-based, African green monkey; settings: African green monkey, non-infected Vero E6 cells, MTS, 72 h; read-out: Fifty percent effect (CC50) in non-infected Vero E6
Method: as §1, §2

SMILES	Fold, antiviral concentrations lower than those required to kill amebae (Entamoeba histolytica)	CC50 at 24 h [1]	CC50 at 72 h [2]
CCC1=C(C[C@H]2NCCc3cc(OC)c(OC)cc32)C[C@H]2c3cc(OC)c(OC)cc3CCN2C1 [DHE4, 4H-Benzo[a]quinolizine, 3-ethyl-1,6,7,11b-tetrahydro-9,10-dimethoxy-2-[[(1R)-1,2,3,4-tetrahydro-6,7-dimethoxy-1-isoquinolinyl]methyl]-, (11bS)-]	125–250 fold	–	–
CC[C@H]1CN2CCc3cc(OC)c(OC)cc3[C@@H]2C[C@@H]1C[C@H]1NCCc2cc(OC)c(OC)cc21 [Emetine, 2H-Benzoaquinolizine, 3-ethyl-1,3,4,6,7,11b-hexahydro-9,10-dimethoxy-2-(1R)-1,2,3,4-tetrahydro-6,7-dimethoxy-1-isoquinolinylmethyl-, dihydrochloride, (2S,3R,11bS)-, reference compound]	–	100 µM	1.52 µM

From article PMC10831786 (Virus Research, 2024)
